Reference: US11820975B2, “Human blood brain barrier model” (National Research Council of Canada, priority 2014, dated 2023)

How the values were obtained:
[1] = tested on: AF-iPSC-derived neurons; format: cell-based, human
[2] = tested on: AF-iPSC-BECs; format: in vitro ADME, human; details: AF-iPSC-BECs vs. HBMECs (Cell Systems), FIG. 6C
[3] = tested on: AF-iPSC-BECs; format: cell-based, human; details: BBB model cultured with the agent; ACMx2 for 24 hours; FIG. 7A-B

In the case of `NC1=N[C@H](O)[C@H]2[C@H]3O[C@]4(O)O[C@@H]([C@@H](O)[C@@]2(N1)[C@@H]4O)[C@]3(O)CO` [TTX, tetrodotoxin], the “Effect on spiking activity” value [1] is reported as “eliminated spiking activity”.

For `O=C([O-])c1ccccc1-c1c2ccc(=O)cc-2oc2cc([O-])ccc12.[Na+].[Na+]` [Sodium fluorescein], the “Sodium fluorescein permeability of AF-iPSC-BECs compared with HBMECs” value [2] was “significantly lower”.

For `C[C@]12CCC(=O)C=C1CC[C@@H]1[C@@H]2[C@@H](O)C[C@@]2(C)[C@H]1CC[C@]2(O)C(=O)CO` [hydrocortisone], the “Change in TEER value” [3] was “significant increase”.
